Source: US20100080862A1, “COMPOSITIONS AND FOODS FOR IMPROVING LIPID METABOLISM” (Kirin Beer Kabushiki Kaisha, priority 2002, published 2010)

Experiments:
[1] = test system: human PPARγ; assay: PPARγ agonist screening system, PPRE luciferase reporter in CV-1 cells (Example 9); format: cell-based; settings: for PPARγ/RXR alpha activating activity compared to that with 1 μM pioglitazone: at a concentration of 10 μm; for PPARγ/RXR alpha activating activity (relative luciferase activity): concentrations of 1, 5, 10, and 50 μM, 48 hours
Description: In order to construct a human PPARγ expression plasmid, a PPARγ ORF was cloned from the human heart cDNA library (Gibco). After the sequence was confirmed, the cloned ORF was ligated to the NheI-SalI site of the expression vector pCI neo (Promega). The sequences of primers used for the cloning were as follows: […]
Next, in order to construct a reporter plasmid, oligo DNAs having 3 copies of PPRE was constructed and inserted at the KpnI-BglII site of the firefly luciferase reporter vector pGL3-promoter vector (Promega), after which the sequences were confirmed. The sequences of oligo-DNAs containing PPRE are as follows:
CV-1 cells were transfected with the above-mentioned plasmid along with the renilla luciferase reporter vector pRL-SV40 vector for compensation (Promega) using Lipofect AMINE (Gibco). The CV-1 cells used were cultured at a concentration of 5×10^4 cells/ml in 2 ml of DMEM (Gibco) supplemented with 10% fetal calf serum (Gibco) and penicillin-streptomycin (10000 units and 1 mg/ml, respectively; Gibco) on a 12-well plate at 37° C. in an atmosphere of 5% CO2 on the day before transfection. After the transfection, cells for the positive control were cultured in the abovementioned DMEM medium containing 1 μm pioglitazone (Takeda). After cultivating for 48 hours, the cells were recovered and the lysate was prepared using a Dual-Luciferase reporter assay system (Promega) to measure firefly luciferase and renilla luciferase activity using a luminometer (Luminous CT-9000D, DIA-IATRON). Relative luciferase activity was obtained by dividing the value for firefly luciferase activity by the value for renilla luciferase activity.

[2] = test system: C57BL/6 mice (females); assay: Improving effect of fractionated lupulone on lipid metabolism in mice (Example 14); format: in vivo
Description: Improving effect of a fractionated lupulone on lipid metabolism was evaluated using C57BL/6 mice (females). Namely, lupulone was purified from hop pellets (CAS pellets, a product of Saaz, Czech Republic). About 2.5 kg of hop pellets were extracted with 4 L of ethyl acetate 3 times and the extract was concentrated under the reduced pressure to obtain a dark green extract (329.17 g). A portion of the extract (262.7 g) was applied on a silica gel column for fractionation. Chromatography was carried out using a stepwise elution with a hexane-ethyl acetate mixed solution to obtain 15 fractions. The third fraction (41.8 g) was applied on a silica gel column for refractionation and a fraction eluted with a hexane:ethyl acetate (20:1) solution was recrystallized to obtain lupulone (1.88 g, white needle crystals, yield: about 0.094%). Further, 5-week-old C57BL/6NCrj female mice (8 per group) (Japan Charles River) were fed CE2 (Japan Clea) and water for 1 week ad libitum. Then, the animals were divided into 2 groups, i.e., a group fed AIN76A (described in Example 2) with addition of 0.2% cholesterol and 0.3% cellulose (referred to as “group C” hereinafter) and a group fed AIN76A with addition of 0.2% cholesterol and 0.3% lupulone (referred to as “group L” hereinafter). The diets were prepared and administered according to the methods described in Example 2. One week after feeding the test diets, the animals were dissected under non-fasting conditions.

[3] = target: T1, fused protein of PPARγ with yeast Gal4 protein (Homo sapiens, UniProt P37231); assay: PPARγ agonist screening system consisting of a fused protein, Gal4 luciferase reporter in CV-1 cells (Example 10); format: cell-based; settings: humulone compounds at 1, 3, and 10 μM, 48 hours
T1 construct: 204a.a.-505a.a) was cloned; expressed in transfected cells; host or cells: CV-1 cells
T1 sequence (P37231 204-505): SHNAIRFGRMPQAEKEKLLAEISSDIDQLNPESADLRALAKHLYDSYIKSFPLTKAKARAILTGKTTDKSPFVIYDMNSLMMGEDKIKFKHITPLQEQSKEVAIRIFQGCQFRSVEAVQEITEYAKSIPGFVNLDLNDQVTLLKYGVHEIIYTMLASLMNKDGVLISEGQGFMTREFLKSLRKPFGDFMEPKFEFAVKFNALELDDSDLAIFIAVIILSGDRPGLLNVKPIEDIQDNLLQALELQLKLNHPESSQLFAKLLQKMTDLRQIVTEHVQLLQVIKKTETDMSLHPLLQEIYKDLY
Description: In order to construct a human PPARγ expression plasmid, a PPARγ ligand binding domain (LBD; 204a.a.-505a.a) was cloned from the human heart cDNA library (Gibco). After the sequence was confirmed, the cloned ORF was ligated to the BamHI-Kpn1 site of the expression vector pBind (Promega) to construct the expression vector pGR-Gal4-PPARγ which expresses a fused protein of PPARγ with yeast Gal4 protein. The sequences of primers used for the cloning are as follows: […]
Next, an N terminal sequence (1a.a-76a.a) of the human glucocorticoid receptor (GR) was ligated to the N-terminal of the Gal4 region of pBind so that the reading frame coincided with Gal4. The GR was cloned from the heart cDNA library (Gibco) using PCR. The sequences of primers used for the cloning are as follows: […]
As a reporter plasmid, firefly luciferase expression vector pG5luc (Promega) having 5 copies of the Gal4 binding site introduced into the promoter region was used. CV-1 cells were transfected with the pGR-Gal4-PPARγ and the pG5luc using Lipofect AMINE (Gibco). After the transfection, the medium was replaced with a medium (DMEN, Gibco) with addition of a test sample or control (pioglitazone), and cells were recovered after cultivation for 48 hours. After the cell recovery, cell lysate was prepared using a Dual-Luciferase reporter assay system (Promega) to measure firefly luciferase activity using a luminometer (Luminous CT-9000D, DIA-IATRON). Further, the protein concentration of the cell lysate was measured using a Dc Protein assay (BIO-RAD) to standardize the value of firefly luciferase activity for the protein concentration. The result was expressed as a relative value by setting the value of the negative control to be 1.

[4] = test system: C57BL/6 mice fed high fat diet; assay: Oral glucose tolerance test in mice with high fat diet-induced insulin resistance (Example 15); format: in vivo
Description: C57BL/6 mice were fed the high fat diet shown in Example 8 for 12 weeks to induce insulin resistance and then orally administered with the water soluble hop extract for 10 consecutive days (100 and 330 mg/kg/day). After completion of the administration, animals were fasted for 16 hours and then subjected to an oral glucose tolerance test (OGTT). […] After completion of the administration, animals were fasted for 16 hours and then subjected to an oral glucose tolerance test (OGTT). In OGTT, after blood sampling and blood sugar measurement, 1 g/kg of aqueous glucose solution was administered (at time zero), after which blood sampling and blood sugar measurement were carried out at 15, 30, and 60 minutes and blood sugar measurement was carried out at 120 minutes. Change with time in the blood insulin level was measured using an insulin measuring kit (Morinaga Seikagaku Institute).

[5] = purified isocohumulone 10 and 30 mg/kg/day oral, 10 days

Row | SMILES | PPARγ/RXR alpha activating activity compared to that with 1 μM pioglitazone [1] | PPARγ/RXR alpha activating activity (relative luciferase activity) [1] | cholesterol content per g of liver ([2]; group L 0.3% lupulone in AIN76A + 0.2% cholesterol, one week, non-fasting) | body weight ([2]; group L 0.3% lupulone in diet) | body weight gain per calorie intake ([2]; group L 0.3% lupulone in diet) | PPARγ activating activity (firefly luciferase, relative to negative control) [3] | insulin resistance (blood insulin concentration upon OGTT) ([4]; oral, 10 consecutive days, water soluble extract 100 and 330 mg/kg/day, purified isocohumulone 10 and 30 mg/kg/day) | glucose tolerance (blood sugar level upon OGTT) ([4]; oral, 10 consecutive days, water soluble extract 100 and 330 mg/kg/day, purified isocohumulone 10 and 30 mg/kg/day, 1 g/kg glucose after 16 h fasting) | insulin concentration before the administration (of glucose) [4, 5] | insulin concentration thereafter (after glucose administration) [4, 5]
1 | CCC(C)C(=O)C1=C(O)C(O)(C(=O)CC=C(C)C)C(CC=C(C)C)C1=O (stereo not drawn) [isoadhumulones, isoadhumulone] | almost equivalent | exhibited the activity |  |  |  |  |  |  |  | 
2 | CC(C)=CCC1=C(O)C(CC=C(C)C)(CC=C(C)C)C(=O)C(C(=O)CC(C)C)=C1O [lupulone] |  |  | significant decrease | significant decrease | significantly reduced |  |  |  |  | 
3 | CC(C)=CCC1=C(O)[C@](O)(CC=C(C)C)C(=O)C(C(=O)CC(C)C)=C1O [humulones, humulone] | almost equivalent | exhibited the activity |  |  |  | activity was confirmed |  |  |  | 
4 | CC(C)=CCC(=O)C1(O)C(O)=C(C(=O)C(C)C)C(=O)C1CC=C(C)C (stereo not drawn) [isocohumulones, isocohumulone] | almost equivalent | exhibited the activity |  |  |  | activity was confirmed | amelioration | Amelioration | significantly decreased | tended to keep decreasing
5 | CC(C)=CCC1=C(O)C(O)(CC=C(C)C)C(=O)C(C(=O)C(C)C)=C1O (stereo not drawn) [cohumulones, cohumulone] | almost equivalent | exhibited the activity |  |  |  | activity was confirmed |  |  |  | 
6 | CC(C)=CCC(=O)C1(O)C(O)=C(C(=O)CC(C)C)C(=O)C1CC=C(C)C (stereo not drawn) [isohumulones, isohumulone] | almost equivalent | exhibited the activity |  |  |  | activity was confirmed |  |  |  | 
